# {Cy5.5} = Cy5.5 cyanine dye label
# Key:
# WT and DNase I KO mice = assay: Intravital imaging of endonuclease activity in kidneys
# From the text: At the next step, WT and DNase I KO mice were anesthetized and intravenously administered with 50 nmol/kg of AB259.3 probe followed by intravital imaging using Xenogen-IVIS.
# To additionally confirm preferential accumulation and processing of AB259.3 probe in kidneys, separate set of mice was deeply anesthetized and subjected to abdominal incision and real-time intravital visualization of left kidney while performing intravenous injection of AB259.3 probe. […] For this, DNase I KO animals were subjected to open surgery that was used to administer 5 μl DNase I (0.1 mg/ml) to subcapsular space of upper ventral zone of left kidney. To control effect of DNase I, additional WT and DNase I KO mice were injected with same volume of the vehicle. Immediately after injection, mice were injected with 50 nmol/kg of AB259.3 probe intravenously and then imaged in a Xenogen-IVIS.
# Male DNase I KO mice and their WT counterparts at the age 8-10 weeks were used for all experiments. All procedures with mice were performed under general anesthesia with 50 mg/kg ketamine. For subcutaneous administration, mice were injected with 10 μl of 0.1 μM AB259.3 in the dorsal subcutaneous site. For systemic visualization, AB259.3 was injected intravenously at 50 nmol/kg in tail vein.
# Imaging of live and euthanized mice or their isolated organs were performed using Xenogen IVIS Image System 200 (Caliper Life Sciences, Hopkinton, Mass.) equipped with Living Image® Software.
# DNase I = target: T1, DNase I (Homo sapiens, UniProt P24855); assay: Kinetic fluorescence of probes exposed to DNase I in vitro; type: biochemical
# T1 construct: purchased Sigma (St. Louis, Mo.)
# T1 sequence (P24855 23-282): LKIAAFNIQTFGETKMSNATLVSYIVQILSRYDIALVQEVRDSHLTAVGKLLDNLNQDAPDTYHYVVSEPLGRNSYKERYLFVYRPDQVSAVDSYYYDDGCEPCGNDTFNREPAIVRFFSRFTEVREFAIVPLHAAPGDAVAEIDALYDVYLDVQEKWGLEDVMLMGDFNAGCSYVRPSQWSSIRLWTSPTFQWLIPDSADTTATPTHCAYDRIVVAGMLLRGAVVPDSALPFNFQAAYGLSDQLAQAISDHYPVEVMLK
# Protocol: It was hypothesized that exposure of the probes to endonucleases would lead to DNA cleavage and dissociation of protruded strand from the hairpin (FIG. 2A). To assess which of the proposed probes is the best to measure endonuclease activity, the probes (0.5 μM) were exposed with recombinant human DNase I (1 μg/ml) and the kinetic fluorescence curves were recorded. Twenty min into the reaction, AB259.1, AB259.3 and AB259.5 gained 1.75-, 2.6- and 1.62-fold fluorescence, respectively, compared to the baseline (FIG. 2B). At 20-25 min, AB259.1 and AB259.3 reached the plateaus. […] Therefore, AB259.3 was chosen for further experiments.
# To detect specificity of the assay to DNase I that is a Ca/Mg-dependent endonuclease, AB259.3 probe was tested with 1 μg/ml DNase I in the presence of Ca++ and Mg++ (EAA buffer), in absence of the cations (deionized water), or in excess of EDTA (200 μM). […] Finally, it was tested whether AB259.3 probe will detect inhibition of DNase I activity by DNase I inhibitors such as ZnCl2 and Zn-diisopropyl salicylate (Zn-DIPS).
# (§1) All cell-free experiments were performed using the Bio-Tek Synergy 5 fluorescent plate reader. Before experiments, optimal excitation and emission wavelengths were determined. For this, excitation and emission were scanned in the ranges of 600-680 nm and 690-705 nm, respectively. The optimal excitation/emission was determined to be 665/703 nm. All kinetic and endpoint measurements were done in a total volume of 100 μl at 37° C. Unless stated otherwise, DNA substrate was used in final concentration 0.5 μM reconstituted in endonuclease activity assay (EAA) buffer (2 mM CaCl2, 5 mM MgCl2, 10 mM Tris-HCl, pH 7.4) in a 96-well plate. After measurement of starting fluorescence, DNase I or tested material (diluted 1:20 urine or 1:100 serum) were added to the reconstituted probe, rapidly mixed and fluorescence was monitored for up to 60 min with 30-sec intervals. In some instances, EDTA (final concentration 200 μM) or NaOH (50 mM) was added to terminate the reaction. For the experiments that involved assessment of fluorescence after DNA denaturing, probes were tested in Cepheid real-time PCR system using Cy5 setting (Sunnyvale, Calif.).
# NRK-52E cells = assay: Intracellular endonuclease activity in cultured cells, time-lapse microscopy; type: cell-based, rat; conditions: AB259.3/Lipofectamine LTX complexes
# Protocol: To test whether AB259.3 probe may be delivered intracellularly and thus be used as an indicator of endonuclease activity in live cells, NRK-52E cells were transfected with of AB259.3/Lipofectamine LTX complexes and imaged by time-lapse epifluorescence microscopy every 10 min for 8 hours. A 2.5-3 times increased fluorescence reached plateau in 1 hour after transfection and the cells retained fluorescent dye for the duration of experiment (FIG. 4A). To induce activity of endonucleases, cells were treated with cisplatin or camptothecin and imaged by time-lapse microscopy for Cy5.5 fluorescence. […] Therefore, it was concluded that AB259.3 can be delivered and used for intracellular monitoring of endonuclease activity in live cells. To further determine whether AB259.3 probe can be used in other cell lines, several of them were tested (FIG. 4D). […] It was then determined whether the probe without the loop would be consumed by NRK-52E cells equally to the original loop probe. […] Finally, PCR was used to determine whether the DNA part (as opposed to the fluorophores) of the probes enters the cells in vivo and in vitro.
# Rat proximal tubular epithelial NRK-52E cells were used to test the ability of AB259.3 probe to measure endonuclease activity. The cells were seeded in a 24-well plate at 50,000 cells per well in complete DMEM medium supplemented with 10% fetal bovine serum. Cells were transfected with the AB259.3 probe using Lipofectamin LTX and then subjected to spinning disk confocal fluorescent time-lapse microscopy in 628/40-692/40 spectrum every 10 min for 8 hours using Olympus IX-81 image system equipped with Hamamatsu ORCA-ER camera and LiveCell microenvironmental control chamber (Pathology Devices Inc., Westminster, Md.). In separate experiment, cells were treated with either 25 μM cisplatin or 50 μM camptothecin for 8 hours, followed by 1-hour transfection with AB259.3 probe and 8-hour time-lapse imaging session with 10-min intervals using the same microscopy system.
# [1] = Alkaline denaturing of probes, kinetic fluorescence; type: physicochemical; conditions: alkaline buffer
# Protocol: Lastly, the probes' integrity was tested by alkaline denaturing. The probes were treated with alkaline buffer and kinetic detection of the fluorescence was performed. […] AB259.1, AB259.3 and AB259.5 gained 40%, 81%, and 85% of fluorescence, respectively.
# as §1
substance,measurement,setting,value
"[Cy5.5]AACACTCCGATGAGTGTAGAATGT[Cy5.5] (DNA, 5' {Cy5.5}, 3' {Cy5.5}, backbone not given here) [AB259.3, hairpin DNA probe with Cy5.5 at both ends, protruding strand +5]","time to plateau of fluorescence in kidneys, intravital imaging","WT and DNase I KO mice; 50 nmol/kg intravenous, FIGS. 7A and 7B",10 min
same,retention of fluorescence by kidneys,"WT and DNase I KO mice; 50 nmol/kg intravenous, FIGS. 7C and 7D",at least 5 hours
same,"time to plateau of Cy5.5 fluorescence in exposed left kidney, real-time","WT and DNase I KO mice; abdominal incision, intravenous injection, FIG. 7E",10 min
same,dependence of kinetic reaction on DNase I concentration,"DNase I; different concentrations of DNase I, FIG. 2C",linear correlation between mean velocity (Vm) of the kinetic reaction and DNase I concentration
same,gain of fluorescence compared to baseline,"DNase I; probe 0.5 μM, DNase I 1 μg/ml, twenty min into the reaction, FIG. 2B",2.6 fold
same,time to plateau of fluorescence after transfection,NRK-52E cells,1 h
same,increase of fluorescence in cells after transfection,NRK-52E cells; FIG. 4A,2.5-3 times
same,gain of fluorescence on alkaline denaturing,[1],81%

# — patent publication US9650674B2, “Nucleic acid probes and methods of using the same” (Board of Trustees University of Arkansas, priority 2012, dated 2017)
